Test results reported in ChEMBL document CHEMBL4765450, “The components and activities analysis of a novel anticoagulant candidate dHG-5” (Eur J Med Chem, 2020).
Activity calls are given as the source filed them. The calls are words filed in the database; no cut-off is given here.

Tests used:
[1] = tested on: Plasma; assay: (§1) Anticoagulation activity in human plasma assessed as drug level causing 20 times doubling of APTT preincubated for 2 mins followed by APTT reagent and measured after 3 mins by coagulometric method relative to dHG-5; type: functional; details: time 5 min
[2] = target: Coagulation factor XI (Homo sapiens) (UniProt P03951); assay: Inhibition of factor 11a (unknown origin) at IC50 using S-2366 as substrate preincubated for 1 min followed by chromogenic substrate addition and measured for 2 mins in presence of AT-III; details: time 3.0 min
[3] = tested on: Rattus norvegicus; assay: Antithrombotic activity in thromboplastin and stasis-induced Sprague-Dawley rat deep venous thrombosis model assessed as reduction in venous thrombosis by measuring activity potency of oligosaccharides multiplied by the percentage of oligosaccharides in dHG-5 at 3.64 mg/kg, sc administered 1 hr prior to thromboplastin addition for 20 secs followed by establishment of stasis for 20 mins relative …; type: functional; details: time 80.33 min, 1.339 h
[4] = tested on: Plasma; assay: as §1, with “of APTT by measuring activity potency of oligosaccharides multiplied by the percentage of oligosaccharides in dHG-5 preincubated for” for “of APTT preincubated for”; type: functional; details: time 5 min
[5] = target: T1, Coagulation factor IX/VIII (Homo sapiens) (UniProt P00740+P00451); assay: (§2) Inhibition of human citrated plasma iXase (factor 8a-factor 9a complex) preincubated for 2 mins followed by factor 10 addition and measured after 1 min by FXa chromogenic substrate SXa-11 based assay relative to dHG-5; type: protein-complex assay; details: time 3.0 min
[6] = target: Coagulation factor X (Homo sapiens) (UniProt P00742); assay: Inhibition of factor 10a (unknown origin) at IC50 preincubated for 1 min followed by chromogenic substrate addition and measured for 2 mins; details: time 3.0 min
[7] = target: Coagulation factor XI (Homo sapiens) (UniProt P03951); assay: Inhibition of factor 11a (unknown origin) at IC90 using S-2366 as substrate preincubated for 1 min followed by chromogenic substrate addition and measured for 2 mins in presence of AT-III; details: time 3.0 min
[8] = target: Coagulation factor X (Homo sapiens) (UniProt P00742); assay: Inhibition of factor 10a (unknown origin) at IC90 preincubated for 1 min followed by chromogenic substrate addition and measured for 2 mins in presence of AT-III relative to control; details: time 3.0 min
[9] = target: Prothrombin (Homo sapiens) (UniProt P00734); assay: Inhibition of factor 2a (unknown origin) at IC50 preincubated for 1 min followed by chromogenic substrate addition and measured for 2 mins in presence of AT-III; details: time 3.0 min
[10] = tested on: Rattus norvegicus; assay: Antithrombotic activity in thromboplastin and stasis-induced Sprague-Dawley rat deep venous thrombosis model assessed as reduction in venous thrombosis at 3.64 mg/kg, sc administered 1 hr prior to thromboplastin addition for 20 secs followed by establishment of stasis for 20 mins relative to dHG-5; type: functional; details: time 80.33 min, 1.339 h
[11] = target: Prothrombin (Homo sapiens) (UniProt P00734); assay: Inhibition of factor 2a (unknown origin) at IC90 preincubated for 1 min followed by chromogenic substrate addition and measured for 2 mins in presence of AT-III; details: time 3.0 min
[12] = target: T2, Coagulation factor VII (Homo sapiens) (UniProt P08709); assay: Inhibition of factor 7a (unknown origin) at IC50 using pefachrome factor VIIa as substrate preincubated for 1 min followed by chromogenic substrate addition and measured for 2 mins; details: time 3.0 min
T2 sequence (whole entry): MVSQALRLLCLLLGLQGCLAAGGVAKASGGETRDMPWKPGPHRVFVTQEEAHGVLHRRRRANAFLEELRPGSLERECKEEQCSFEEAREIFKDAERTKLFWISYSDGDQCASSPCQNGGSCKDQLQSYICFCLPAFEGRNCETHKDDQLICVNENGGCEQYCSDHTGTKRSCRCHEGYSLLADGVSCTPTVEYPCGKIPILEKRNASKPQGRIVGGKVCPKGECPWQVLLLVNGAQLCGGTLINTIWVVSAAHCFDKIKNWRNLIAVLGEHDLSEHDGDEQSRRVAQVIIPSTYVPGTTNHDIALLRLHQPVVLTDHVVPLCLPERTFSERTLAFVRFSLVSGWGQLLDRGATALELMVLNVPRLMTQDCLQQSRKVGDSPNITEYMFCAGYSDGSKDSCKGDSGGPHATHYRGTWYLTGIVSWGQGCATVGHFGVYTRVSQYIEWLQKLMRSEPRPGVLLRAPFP

[13] = target: T3, Coagulation factor IX (Homo sapiens, UniProt P00740); assay: Inhibition of factor 9a (unknown origin) binding to immobilized biotinylated oHG-11 by biolayer interferometry relative to dHG-5
[14] = target: T2, Coagulation factor VII (Homo sapiens); assay: Inhibition of factor 7a (unknown origin) at IC50 using pefachrome factor VIIa as substrate preincubated for 1 min followed by chromogenic substrate addition and measured for 2 mins in presence of AT-III; details: time 3.0 min
[15] = target: T4, Coagulation factor XII (Homo sapiens) (UniProt P00748); assay: Inhibition of factor 12a (unknown origin) at IC50 using kallikrein chromogenic substrate preincubated for 1 min followed by chromogenic substrate addition and measured for 2 mins; details: time 3.0 min
T4 sequence (whole entry): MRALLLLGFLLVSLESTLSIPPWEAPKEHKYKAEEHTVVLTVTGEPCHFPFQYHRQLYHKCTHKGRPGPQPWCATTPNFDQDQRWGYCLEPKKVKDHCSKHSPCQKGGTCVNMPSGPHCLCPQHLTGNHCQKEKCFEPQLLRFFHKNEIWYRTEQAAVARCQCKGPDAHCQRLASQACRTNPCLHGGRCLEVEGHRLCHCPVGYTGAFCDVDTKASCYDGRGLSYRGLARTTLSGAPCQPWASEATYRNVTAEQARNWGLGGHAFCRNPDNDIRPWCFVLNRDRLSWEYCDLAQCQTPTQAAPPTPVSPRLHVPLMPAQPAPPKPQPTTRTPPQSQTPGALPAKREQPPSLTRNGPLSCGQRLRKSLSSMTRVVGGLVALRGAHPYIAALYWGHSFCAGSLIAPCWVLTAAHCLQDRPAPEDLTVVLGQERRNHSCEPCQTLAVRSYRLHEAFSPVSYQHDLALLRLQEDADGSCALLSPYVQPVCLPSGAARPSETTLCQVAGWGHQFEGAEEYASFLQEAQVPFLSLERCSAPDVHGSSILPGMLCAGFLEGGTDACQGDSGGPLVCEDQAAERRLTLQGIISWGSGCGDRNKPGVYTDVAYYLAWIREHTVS

[16] = target: Prothrombin (Homo sapiens) (UniProt P00734); assay: Inhibition of factor 2a (unknown origin) at IC50 preincubated for 1 min followed by chromogenic substrate addition and measured for 2 mins; details: time 3.0 min
[17] = target: Coagulation factor X (Homo sapiens) (UniProt P00742); assay: Inhibition of factor 10a (unknown origin) at IC50 preincubated for 1 min followed by chromogenic substrate addition and measured for 2 mins in presence of AT-III; details: time 3.0 min
[18] = target: T1, Coagulation factor IX/VIII (Homo sapiens); assay: as §2, with “complex) assessed as activity potency of oligosaccharides multiplied by the percentage of oligosaccharides in dHG-5” for “complex)”; type: protein-complex assay; details: time 3.0 min
[19] = target: T3, Coagulation factor IX; assay: Inhibition of factor 9a (unknown origin) binding to immobilized biotinylated oHG-11 assessed as activity potency of oligosaccharides multiplied by the percentage of oligosaccharides in dHG-5 by biolayer interferometry relative to dHG-5
[20] = target: T4, Coagulation factor XII (Homo sapiens); assay: Inhibition of factor 12a (unknown origin) at IC50 using kallikrein chromogenic substrate preincubated for 1 min followed by chromogenic substrate addition and measured for 2 mins in presence of AT-III; details: time 3.0 min
[21] = target: Coagulation factor XI (Homo sapiens) (UniProt P03951); assay: Inhibition of factor 11a (unknown origin) at IC50 using S-2366 as substrate preincubated for 1 min followed by chromogenic substrate addition and measured for 2 mins; details: time 3.0 min
[22] = tested on: Plasma; assay: Induction of platelet aggregation in human platelet rich plasma at plasma peak concentration of 10 times anti-thrombosis ED50 measured after 10 mins by light transmission aggregometry
[23] = tested on: Plasma; assay: Induction of platelet aggregation in rat wash platelet at plasma peak concentration of 10 times anti-thrombosis ED50 measured after 10 mins by light transmission aggregometry
[24] = tested on: Rattus norvegicus; assay: Antithrombotic activity in thromboplastin and stasis-induced Sprague-Dawley rat deep venous thrombosis model assessed as reduction in venous thrombosis by measuring activity potency of oligosaccharides multiplied by the percentage of oligosaccharides in dHG-5 at 2.7 mg/kg, sc administered 1 hr prior to thromboplastin addition for 20 secs followed by establishment of stasis for 20 mins relative to dHG-5; type: functional; details: time 80.33 min, 1.339 h
[25] = tested on: Rattus norvegicus; assay: Antithrombotic activity in thromboplastin and stasis-induced Sprague-Dawley rat deep venous thrombosis model assessed as reduction in venous thrombosis at 2.7 mg/kg, sc administered 1 hr prior to thromboplastin addition for 20 secs followed by establishment of stasis for 20 mins relative to dHG-5; type: functional; details: time 80.33 min, 1.339 h

T3 sequence (P00740 47-191 limits assumed): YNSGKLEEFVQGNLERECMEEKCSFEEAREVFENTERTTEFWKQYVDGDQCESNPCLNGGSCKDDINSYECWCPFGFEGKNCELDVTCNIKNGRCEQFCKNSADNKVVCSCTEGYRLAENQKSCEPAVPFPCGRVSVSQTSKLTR
T3 sequence (P00740 227-461 limits assumed): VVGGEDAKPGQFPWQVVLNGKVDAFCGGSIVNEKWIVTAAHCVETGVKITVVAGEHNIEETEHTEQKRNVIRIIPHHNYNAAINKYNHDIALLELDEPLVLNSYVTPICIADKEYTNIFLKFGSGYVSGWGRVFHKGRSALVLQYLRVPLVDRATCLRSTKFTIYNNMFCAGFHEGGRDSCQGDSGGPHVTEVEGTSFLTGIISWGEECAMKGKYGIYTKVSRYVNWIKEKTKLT
Sequence of Coagulation factor XI (Homo sapiens) (P03951 19-387 limits assumed): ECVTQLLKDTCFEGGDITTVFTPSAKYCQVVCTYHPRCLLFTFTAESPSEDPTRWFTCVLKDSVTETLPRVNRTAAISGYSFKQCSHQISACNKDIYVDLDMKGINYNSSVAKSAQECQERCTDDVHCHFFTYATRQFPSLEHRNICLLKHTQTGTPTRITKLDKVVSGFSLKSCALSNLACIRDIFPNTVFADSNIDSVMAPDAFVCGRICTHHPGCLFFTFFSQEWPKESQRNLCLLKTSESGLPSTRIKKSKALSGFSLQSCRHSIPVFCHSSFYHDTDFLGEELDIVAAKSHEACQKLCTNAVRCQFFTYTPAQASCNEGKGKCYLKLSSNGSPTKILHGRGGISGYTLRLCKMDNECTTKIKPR
Sequence of Coagulation factor XI (Homo sapiens) (P03951 388-625 limits assumed): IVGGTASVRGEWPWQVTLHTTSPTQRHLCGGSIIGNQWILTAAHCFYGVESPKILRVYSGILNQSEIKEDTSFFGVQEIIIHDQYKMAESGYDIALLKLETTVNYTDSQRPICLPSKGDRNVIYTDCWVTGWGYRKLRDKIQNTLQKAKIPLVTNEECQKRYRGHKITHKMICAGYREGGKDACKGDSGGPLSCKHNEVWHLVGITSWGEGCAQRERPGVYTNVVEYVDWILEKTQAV
Sequence of Coagulation factor X (Homo sapiens) (P00742 41-179 limits assumed): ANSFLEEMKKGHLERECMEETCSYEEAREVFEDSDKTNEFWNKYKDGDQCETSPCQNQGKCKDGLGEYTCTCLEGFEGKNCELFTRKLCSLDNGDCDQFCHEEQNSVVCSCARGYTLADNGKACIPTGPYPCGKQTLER
Sequence of Coagulation factor X (Homo sapiens) (P00742 235-488 limits assumed): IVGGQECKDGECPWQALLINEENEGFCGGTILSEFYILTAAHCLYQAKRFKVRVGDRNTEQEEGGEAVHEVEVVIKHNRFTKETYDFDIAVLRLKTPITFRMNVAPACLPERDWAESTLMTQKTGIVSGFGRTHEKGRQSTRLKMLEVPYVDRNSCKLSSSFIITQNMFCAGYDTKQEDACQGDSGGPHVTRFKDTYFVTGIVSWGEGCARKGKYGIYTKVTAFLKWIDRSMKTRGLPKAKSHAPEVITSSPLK

inhibition [2] | Ratio [5] [U] | inhibition [6] | inhibition [7] | inhibition [8] [%] | inhibition [9] | inhibition [11] | inhibition (active/not active) [12] | Ratio [13] [U] | inhibition [14] | inhibition [15] | inhibition [16] | inhibition [17] | Ratio [18] [U] | Ratio [19] [U] | inhibition [20] | inhibition [21] | Compound | Ratio [1] [U] | Ratio [4] [U] | also measured
inactive | 28.6 | inactive | Active | 14.2 | inactive | Active | inactive | 20.9 | inactive | inactive | inactive | inactive | 5.02 | 3.66 | inactive | inactive | CC(=O)N[C@H]1[C@H](O[C@@H]([C@H](O[C@@H]2O[C@@H](C)[C@@H](OS(=O)(=O)[O-])[C@@H](O)[C@@H]2OS(=O)(=O)O)[C@@H](O)CO)[C@H](O)C(=O)[O-])O[C@H](COS(=O)(=O)[O-])[C@H](OS(=O)(=O)[O-])[C@@H]1O[C@@H]1O[C@H](C(=O)[O-])[C@@H](O[C@@H]2O[C@H](COS(=O)(=O)[O-])[C@H](OS(=O)(=O)[O-])[C@H](O[C@@H]3O[C@H](C(=O)[O-])[C@@H](O[C@@H]4O[C@H](COS(=O)(=O)[O-])[C@H](OS(=O)(=O)[O-])[C@H](O[C@@H]5OC(C(=O)[O-])=C[C@H](O[C@@H]6O[C@@H](C)[C@@H](OS(=O)(=O)[O-])[C@@H](OS(=O)(=O)O)[C@@H]6O)[C@H]5O)[C@H]4NC(C)=O)[C@H](O[C@@H]4O[C@@H](C)[C@@H](OS(=O)(=O)[O-])[C@@H](O)[C@@H]4OS(=O)(=O)O)[C@H]3O)[C@H]2NC(C)=O)[C@H](O[C@@H]2O[C@@H](C)[C@@H](OS(=O)(=O)[O-])[C@@H](O)[C@@H]2OS(=O)(=O)O)[C@H]1O.[Na+].[Na+].[Na+].[Na+].[Na+].[Na+].[Na+].[Na+].[Na+].[Na+].[Na+].[Na+].[Na+].[Na+] | 28.01 | 4.92 | Ratio [3]: 8.55 U; Ratio [10]: 48.6 U
inactive | 51.8 | inactive | Active | 14.2 | inactive | Active | inactive | 35.9 | inactive | inactive | inactive | inactive | 8.26 | 5.72 | inactive | inactive | CC(=O)N[C@H]1[C@H](O[C@@H]([C@H](O[C@@H]2O[C@@H](C)[C@@H](OS(=O)(=O)[O-])[C@@H](OS(=O)(=O)O)[C@@H]2O)[C@@H](O)CO)[C@H](O)C(=O)[O-])O[C@H](COS(=O)(=O)[O-])[C@H](OS(=O)(=O)[O-])[C@@H]1O[C@@H]1O[C@H](C(=O)[O-])[C@@H](O[C@@H]2O[C@H](COS(=O)(=O)[O-])[C@H](OS(=O)(=O)[O-])[C@H](O[C@@H]3O[C@H](C(=O)[O-])[C@@H](O[C@@H]4O[C@H](COS(=O)(=O)[O-])[C@H](OS(=O)(=O)[O-])[C@H](O[C@@H]5O[C@H](C(=O)[O-])[C@@H](O[C@@H]6O[C@H](COS(=O)(=O)[O-])[C@H](OS(=O)(=O)[O-])[C@H](O[C@@H]7OC(C(=O)[O-])=C[C@H](O[C@@H]8O[C@@H](C)[C@@H](OS(=O)(=O)[O-])[C@@H](OS(=O)(=O)O)[C@@H]8O)[C@H]7O)[C@H]6NC(C)=O)[C@H](O[C@@H]6O[C@@H](C)[C@@H](OS(=O)(=O)[O-])[C@@H](OS(=O)(=O)O)[C@@H]6O)[C@H]5O)[C@H]4NC(C)=O)[C@H](O[C@@H]4O[C@@H](C)[C@@H](OS(=O)(=O)[O-])[C@@H](OS(=O)(=O)O)[C@@H]4O)[C@H]3O)[C@H]2NC(C)=O)[C@H](O[C@@H]2O[C@@H](C)[C@@H](OS(=O)(=O)[O-])[C@@H](OS(=O)(=O)O)[C@@H]2O)[C@H]1O.[Na+].[Na+].[Na+].[Na+].[Na+].[Na+].[Na+].[Na+].[Na+].[Na+].[Na+].[Na+].[Na+].[Na+].[Na+].[Na+].[Na+].[Na+] | 61.09 | 9.73 | Activity [22]: Not Active; Activity [23]: Not Active; Ratio [24]: 18.12 U; Ratio [25]: 113.95 U
